Test results as given in the supplement of paper PMC4954754.
± gives the uncertainty stated by the source.

Columns and labels:
Details in all cases: 18 h
HEK293T-Rex ERSE-FLuc [1] = experiment: EC50 for ERSE-FLuc reporter activation
Method: (§1)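 Dose-response of hit compounds in HEK293T-Rex cells stably expressing ERSE-FLuc or XBP1-RLuc reporters, 18 hr treatment, 1536-well; luminescence normalised to 500 nM thapsigargin (100%) and DMSO (0%), fitted to give EC50 (M) and maximal activation; '>' marks EC50 above the top tested dose (~17 µM).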

HEK293T-Rex XBP1-RLuc [2] = experiment: EC50 for XBP1-RLuc reporter activation
Method: as §1

HEK293T-Rex ERSE-FLuc [3] = experiment: maximal ERSE-FLuc activation from dose-response fit, relative to thapsigargin (% of thapsigargin); higher = stronger activation
Method: as §1

HEK293T-Rex XBP1-RLuc [4] = experiment: maximal XBP1-RLuc activation from dose-response fit, relative to thapsigargin (% of thapsigargin); higher = stronger activation
Method: as §1

| Compound | EC50 for ERSE-FLuc reporter activation (HEK293T-Rex ERSE-FLuc [1]) | EC50 for XBP1-RLuc reporter activation (HEK293T-Rex XBP1-RLuc [2]) | maximal ERSE-FLuc activation (HEK293T-Rex ERSE-FLuc [3]) | maximal XBP1-RLuc activation (HEK293T-Rex XBP1-RLuc [4]) |
| --- | --- | --- | --- | --- |
| COc1cccc(C(=O)Nc2nc3ccc(C)cc3s2)c1 | > 20.6 µM | > 20.6 µM | 31.7 ± 6.6 | 10.2 ± 2.3 |
| O=C(NC(c1ccccc1)c1ccccc1)c1csc(-c2cnccn2)n1 | > 16.9 µM | > 16.9 µM | 34.2 ± 3.6 | 43.4 ± 9.4 |
| COc1ccc(N(C(=O)c2ccccc2)S(=O)(=O)c2cc(OC)ccc2OC)cc1 | 6.69 µM | 5.82 µM | 125 ± 14 | 185 ± 8.3 |
| O=c1[nH]c(/C=C2\C=Nc3ccccc32)c(O)n1-c1cccc(Cl)c1 | 2.5 µM | 2.18 µM | 67.9 ± 1 | 74.9 ± 7.7 |
| Nc1nc(Nc2ccccc2)cc(-c2ccccc2)n1 | > 17.2 µM | > 17.2 µM | 25.8 ± 9.6 | 3.36 ± 1.2 |
| O=C1N/C(=C/c2ccc(O)cc2)C(=O)N1Cc1ccc(Br)cc1 | > 15.8 µM | 4.02 µM | 47.9 ± 1.7 | 70.6 ± 14 |
| COc1cccc(C(=O)/C=C/Nc2cc(C)ccc2O)c1 | 4 µM | 6.99 µM | 229 ± 0.77 | 72.5 ± 3.2 |
| NC(=O)c1c(NC(=O)COc2ccccc2)sc2c1CCC2 | > 13.2 µM | > 13.2 µM | 16.2 ± 1.4 | 2.55 ± 0.7 |
| COc1ccc(/C=N/c2sc3c(c2C(N)=O)CCCC3)cc1 | > 16.9 µM | > 16.9 µM | 20.9 ± 2 | 4.94 ± 3.8 |
| COc1cccc(C2=NOC(C(=O)Nc3cc(C)ccc3O)C2)c1 (stereo not drawn) | 7.27 µM | > 16.9 µM | 92.8 ± 22 | 35.1 ± 3 |
| CN(C)/C=N/C1=C(C#N)C(c2ccc3c(c2)OCO3)c2ccc3ccccc3c2O1 (stereo not drawn) | > 16.6 µM | > 16.6 µM | 21.8 ± 6.6 | 7.29 ± 3.2 |
| Nc1ccc2nc(-c3ccccn3)[nH]c2c1 | > 16.9 µM | > 16.9 µM | 16.8 ± 4.6 | 22 ± 0.38 |
| CCOC(=O)c1sc(NC(=O)c2cccc3ccccc23)nc1C | > 16.9 µM | > 16.9 µM | 25.3 ± 5.7 | 3.29 ± 3.4 |
| O=C(Nc1ccc(Cl)cn1)c1ccc(Cl)cc1Cl | > 15.2 µM | > 15.2 µM | 22.5 ± 8.3 | 4.15 ± 0.98 |
| Nc1ccccc1NC(=O)c1ccc(Cl)cc1 | 7.9 µM | > 17.2 µM | 82.8 ± 4.7 | 34.9 ± 0.91 |
| Cc1ccc(O)c(NC(=O)c2cc(CC(C)C)on2)c1 | 3.94 µM | > 16.9 µM | 89.2 ± 8 | 37.2 ± 9.3 |
| Cc1cc(C)nc(/N=C(\N)Nc2ccc(OCc3ccc(Cl)cc3)cc2)n1 | > 14 µM | 2.03 µM | 47.3 ± 7.6 | 88.2 ± 3.4 |
| CCC(=O)N(Cc1cc2cc(C)ccc2n2nnnc12)C1CCCC1 | > 16.9 µM | > 16.9 µM | 20.1 ± 5.6 | 1.64 ± 4.2 |
| CN(C)c1ccc(/C=N/NC(=O)c2cccc(Br)c2)cc1 | > 16.9 µM | > 16.9 µM | 19.2 ± 4.8 | 2.34 ± 2 |
| CCN(CC)c1ccc2cc(-c3nc4ccccc4n3C)c(=O)oc2c1 | > 10.6 µM | > 10.6 µM | 22.8 ± 1.6 | 2.95 ± 3.5 |
| N#Cc1c(NC(=O)c2ccc(Br)cc2)sc2c1CCCC2 | > 12.7 µM | > 12.7 µM | 17.3 ± 2.2 | 1.87 ± 3.4 |
| COc1cccc(-c2nc3ccc(N)cc3[nH]2)c1 | > 16.9 µM | > 16.9 µM | 20.8 ± 3.1 | 14.7 ± 3.4 |
